Where two headings read alike, the source gives them in different places.
Target: BRD4 (BD1+BD2) bromodomain (Homo sapiens (Human), UniProt O60885)
Assay: BRD4 binding inhibition (AlphaScreen, GST-BRD4 vs tetraacetylated histone H4 peptide)
Protocol: A mixture comprising 100 nM GST-BRD4 (BD1+BD2) and 100 nM biotinylated acetyl-histone H4 (Lys5,8,12,16) peptide was prepared in assay buffer (50 mM HEPES pH 7.4; 25 mM NaCl; 0.05% Tween 20; 0.1% bovine serum albumin (BSA); 10 mM dithiothreitol (DTT)). After adding 6 μl of the mixture to the diluent, 6 μl of the pre-mixed AlphaLISA Glutathione Acceptor Beads and AlphaScreen Streptavidin Donor Beads (PerkinElmer, 10 μg/ml in assay buffer, respectively) was added thereto. The samples were incubated in the dark at room temperature for 30 minutes (shaking at 300 rpm). Then, the signals were measured with PerkinElmer Envision HTS Multilabel Reader using an alpha screen protocol of PerkinElmer. Each plate contained the negative control in which biotinylated acetyl-histone H4 peptide and GST-BRD4 (BD1+BD2) were replaced by assay buffer. In the case of using the software GraphPad Prism for calculation, the negative control point was input as a low standard value. The positive control (probe molecule l-BET762 containing protein/peptide mixture) proceeded to pipetting.

[1] = GST-BRD4 (BD1+BD2) / biotinylated acetyl-histone H4 (Lys5,8,12,16) peptide, read-out: IC50, BRD4 binding inhibition
[2] = GST-BRD4 (BD1+BD2) vs biotinylated acetyl-histone H4 peptide, AlphaScreen, read-out: BRD4 IC50

Row | IC50 [1] | IC50 [2] | Structure (SMILES)
1 | ≤ 50 nM | 18 nM | COCCOc1ccc2c(c1)nc(NCCCCNC(=O)[C@@H](NC(=O)C(C)(C)C)C(C)C)c1nnc(C)n12 [Example 402, (S)-2-(2,2-dimethyl-propionylamino)-N-{4-[7-(2-methoxy-ethoxy)-1-methyl-[1,2,4]triazolo[4,3-a]quinoxaline-4-ylamino]-butyl}-3-methyl-butyramide]
2 | – | 81 nM | Cc1nnc2c(NCCCCNC(=O)NC(C)(C)C)nc3ccccc3n12 [Example 22, 1-tert-butyl-3-[4-(1-methyl-[1,2,4]triazolo[4,3-a]quinoxaline-4-ylamino)-butyl]-urea]
3 | – | 69 nM | Cc1ccc2nc(NCCCCNC(=O)OC(C)(C)C)c3nnc(C)n3c2c1 [Example 40, [4-(1,8-dimethyl-[1,2,4]triazolo[4,3-a]quinoxaline-4-ylamino)-butyl]-carbamic acid-tert-butylester]
4 | ≤ 50 nM | 40 nM | COc1c(C)ccc2c1nc(NCCCCNC(=O)c1ccccc1F)c1nnc(C)n12 [Example 139, 2-fluoro-N-[4-(6-methoxy-1,7-dimethyl-[1,2,4]triazolo[4,3-a]quinoxaline-4-ylamino)-butyl]-benzamide]
5 | ≤ 50 nM | 45 nM | CC(=O)Nc1ccc2nc(NCCCCNC(=O)c3ccccc3)c3nnc(C)n3c2c1 [Example 548, N-[4-(8-acetamino-1-methyl-[1,2,4]triazolo[4,3-a]quinoxaline-4-ylamino)-butyl]-benzamide]
6 | ≤ 50 nM | 20 nM | COc1cc2nc(NCCCCNC(=O)NC3CCCCC3)c3nnc(C)n3c2cc1C(F)(F)F [Example 482, 1-cyclohexyl-3-[4-(7-methoxy-1-methyl-8-trifluoromethyl-[1,2,4]triazolo[4,3-a]quinoxaline-4-ylamino)-butyl]-urea]
7 | ≤ 50 nM | – | COCCOc1ccc2c(c1)nc(NCCCCNC(=O)[C@@H](NS(C)(=O)=O)C(C)C)c1nnc(C)n12 [Example 405, 2-(S)-methanesulfonylamino-{4-[7-(2-methoxy-ethoxy)-1-methyl-[1,2,4]triazolo[4,3-a]quinoxaline-4-ylamino]-butyl}-3-methyl-butyramide]
8 | ≤ 50 nM | 27 nM | CCNC(=O)NCCCCNc1nc2cc(OCCOC)ccc2n2c(C)nnc12 [Example 423, 1-ethyl-3-{4-[7-(2-methoxy-ethoxy)-1-methyl-[1,2,4]triazolo[4,3-a]quinoxaline-4-ylamino]-butyl}-urea]
9 | ≤ 50 nM | 43 nM | Cc1nnc2c(NCCCCNC(=O)c3ccc(Cl)nc3)nc3ccccc3n12 [Example 20, 6-chloro-N-[4-(1-methyl-[1,2,4]triazolo[4,3-a]quinoxaline-4-ylamino)-butyl]-nicotinamide]
10 | – | 57 nM | Cc1cccc(C)c1C(=O)NCCCCNc1nc2ccccc2n2c(C)nnc12 [Example 13, 2,6-dimethyl-N-[4-(1-methyl-[1,2,4]triazolo[4,3-a]quinoxaline-4-ylamino)-butyl]-benzamide]
11 | – | 75 nM | Cc1nnc2c(NCCCCNC(=O)OC(C)(C)C)nc3ccc(C(=O)NC(C)C)cc3n12 [Example 532, [4-(8-isopropylcarbamoyl-1-methyl-[1,2,4]triazolo[4,3-a]quinoxaline-4-ylamino)-butyl]-carbamic acid-tert-butylester]
12 | – | 51 nM | Cc1nnc2c(NCCCCNC(=O)c3cccc(Cl)c3Cl)nc3ccccc3n12 [Example 17]
13 | ≤ 10 nM | 9 nM | COCCOc1ccc2c(c1)nc(NCCCCNC(=O)C(C)(C)C(F)(F)F)c1nnc(C)n12 [Example 392, 3,3,3-trifluoro-N-{4-[7-(2-methoxy-ethoxy)-1-methyl-[1,2,4]triazolo[4,3-a]quinoxaline-4-ylamino]-butyl}-2,2-dimethyl-propionamide]
14 | ≤ 50 nM | 47 nM | Cc1nnc2c(NCCCCOC(=O)C(C)(C)C)nc3ccccc3n12 [Example 631, 2,2-dimethyl-propionic acid-4-(1-methyl-[1,2,4]triazolo[4,3-a]quinoxaline-4-ylamino)-butylester]
15 | ≤ 50 nM | 21 nM | Cc1nnc2c(NCCCCNC(=O)OC(C)(C)C)nc3cc(OC(C)C)ccc3n12 [Example 447, [4-(7-isopropoxy-1-methyl-[1,2,4]triazolo[4,3-a]quinoxaline-4-ylamino)-butyl]-carbamic acid-tert-butylester]
16 | ≤ 50 nM | 36 nM | COc1c(C)ccc2c1nc(NCCCCNC(=O)OC(C)(C)C)c1nnc(C)n12 [Example 130, {4-[6-methoxy-1,7-dimethyl-[1,2,4]triazolo[4,3-a]quinoxaline-4-ylamino]-butyl}-carbamic acid-tert-butylester]
17 | ≤ 50 nM | 44 nM | COc1cc2nc(NCCCCNC(=O)[C@H](O)C(C)C)c3nnc(C)n3c2cc1C(F)(F)F [Example 478, 2-(R)-hydroxy-N-[4-(7-methoxy-1-methyl-8-trifluoromethyl-[1,2,4]triazolo[4,3-a]quinoxaline-4-ylamino)-butyl]-3-methyl-butyramide]

More lines, now with the values behind:

Row | Structure (SMILES) | IC50 [1] | IC50 [2]
18 | Cc1nnc2c(NCCCCNC(=O)C(C)(C)O)nc3cc(-c4nc5ccccc5n4C)ccc3n12 [Example 232, 2-hydroxy-N-{4-(7-(1-methyl-1H-benzoimidazole-2-yl)-1-methyl-[1,2,4]triazolo[4,3-a]quinoxaline-4-ylamino)-butyl}-2-methyl-propionamide] | ≤ 50 nM | 33 nM
19 | Cc1nnc2c(NCCCCNC(=O)c3ccccc3)nc3cc(Cl)c(Cl)cc3n12 [Example 31, N-[4-(7,8-dichloro-1-methyl-[1,2,4]triazolo[4,3-a]quinoxaline-4-ylamino)-butyl]-benzamide] | ≤ 50 nM | 31 nM
20 | Cc1ccc(C(=O)NCCCCNc2nc3ccccc3n3c(C)nnc23)c(Cl)n1 [Example 21, 2-chloro-6-methyl-N-[4-(1-methyl-[1,2,4]triazolo[4,3-a]quinoxaline-4-ylamino)-butyl]-nicotinamide] | – | 57 nM
21 | COc1ccc2nc(NCCCCNC(=O)C(C)(C)C)c3nnc(C)n3c2c1 [Example 123, N-[4-(8-methoxy-1-methyl-[1,2,4]triazolo[4,3-a]quinoxaline-4-ylamino)-butyl]-2,2-dimethyl-propionamide] | ≤ 50 nM | 42 nM
22 | COc1cccc2c1nc(NCCCCNC(=O)C(C)(C)C)c1nnc(C)n12 [Example 119, N-[4-(6-methoxy-1-methyl-[1,2,4]triazolo[4,3-a]quinoxaline-4-ylamino)-butyl]-2,2-dimethyl-propionamide] | – | 79 nM
23 | COc1ccc2c(c1)nc(NCCCCNC(=O)[C@H](Cc1ccc(O)cc1)NC(=O)OC(C)(C)C)c1nnc(C)n12 [Example 325, (S)-{2-(4-hydroxy-phenyl)-1-[4-(7-methoxy-1-methyl-[1,2,4]triazolo[4,3-a]quinoxaline-4-ylamino)-butylcarbamoyl]-ethyl}-carbamic acid-tert-butylester] | – | 71 nM
24 | Cc1nnc2c(NCCCCNC(=O)OC(C)(C)C)nc3ccc(N)cc3n12 [Example 542, [4-(8-amino-1-methyl-[1,2,4]triazolo[4,3-a]quinoxaline-4-ylamino)-butyl]-carbamic acid-tert-butylester] | – | 61 nM
25 | COc1cc(C)c2c(c1)nc(NCCCCNC(=O)OC(C)(C)C)c1nnc(C)n12 [Example 455, [4-(7-methoxy-1,9-dimethyl-[1,2,4]triazolo[4,3-a]quinoxaline-4-ylamino)-butyl]-carbamic acid-tert-butylester] | ≤ 50 nM | 31 nM
26 | Cc1nnc2c(NCCCCNC(=O)[C@@H](F)C(C)C)nc3cc(N4C[C@@H](C)O[C@@H](C)C4)ccc3n12 [Example 511, N-{4-[7-(2,6-dimethyl-morphonyl-4-yl)-1-methyl-[1,2,4]triazolo[4,3-a]quinoxaline-4-ylamino]-butyl}-2-(S)-fluoro-3-methyl-butyramide] | ≤ 50 nM | 34 nM
27 | COc1cc2nc(NCCCCNC(=O)OCC(C)C)c3nnc(C)n3c2cc1C(F)(F)F [Example 474, [4-(7-methoxy-1-methyl-8-trifluoromethyl-[1,2,4]triazolo[4,3-a]quinoxaline-4-ylamino)-butyl]-carbamic acid isobutylester] | ≤ 50 nM | 44 nM
28 | COc1ccc2nc(NCCCCNC(=O)OC(C)(C)C)c3nnc(C)n3c2c1 [Example 121, [4-(8-methoxy-1-methyl-[1,2,4]triazolo[4,3-a]quinoxaline-4-ylamino)-butyl]-carbamic acid-tert-butylester] | – | 55 nM
29 | COCC(=O)NCCCCNc1nc2cc(OC)c(OC)cc2n2c(C)nnc12 [Example 80, N-[4-(7,8-dimethoxy-1-methyl-[1,2,4]triazolo[4,3-a]quinoxaline-4-ylamino)-butyl]-2-methoxy-acetamide] | ≤ 50 nM | 28 nM
30 | Cc1cc2nc(NCCCCNC(=O)OC(C)(C)C)c3nnc(C)n3c2cc1C [Example 34, [4-(1,7,8-trimethyl-[1,2,4]triazolo[4,3-a]quinoxaline-4-ylamino)-butyl]-carbamic acid-tert-butylester] | – | 81 nM
31 | COc1c(C)ccc2c1nc(NCCCCNC(=O)OCC(C)C)c1nnc(C)n12 [Example 134, [4-(6-methoxy-1,7-dimethyl-[1,2,4]triazolo[4,3-a]quinoxaline-4-ylamino)-butyl]-carbamic acid isobutylester] | ≤ 50 nM | 19 nM
